Assay results from ChEMBL document CHEMBL6153095, “Dihydroaurones and Isoflavan Derivatives from the Roots of Glycyrrhiza asymmetrica” (J Nat Prod, 2025).
Active and inactive are the calls of the source.

How the values were obtained:
Assay type in all cases: functional, cell-based
MCF7 = experiment: Cytotoxicity against human MCF7 cells assessed as reduction in cell viability at 10 uM by MTT assay
HeLa = experiment: Cytotoxicity against human HeLa cells assessed as reduction in cell viability at 10 uM by MTT assay
HepG2 = experiment: Cytotoxicity against human HepG2 cells assessed as reduction in cell viability at 10 uM by MTT assay
A549 = experiment: Cytotoxicity against human A549 cells assessed as reduction in cell viability at 10 uM by MTT assay

Measured: Activity

COc1cc(O)ccc1[C@H]1COc2cc(O)ccc2[C@H]1c1cc2c(c(CC=C(C)C)c1O)OC[C@@H](c1ccc(O)cc1O)C2
inactive: MCF7 | HeLa | HepG2 | A549

CC(C)=CCc1cc2c(cc1O)OC[C@H](c1ccc(O)cc1O)[C@@H]2c1cc([C@H]2COc3c(ccc(O)c3CC=C(C)C)C2)c(O)cc1O
inactive: MCF7 | HeLa | HepG2 | A549

CC(C)=CCc1c(O)cc(O)cc1/C=C/c1ccc(O)cc1
inactive: MCF7 | HeLa | HepG2 | A549

COc1ccc([C@@H]2COc3c(ccc(O)c3CC=C(C)C)C2=O)c(O)c1
inactive: MCF7 | HeLa | HepG2 | A549

CC1(C)CCc2c(ccc3c2OC[C@@H](c2ccc(O)cc2O)C3)O1
inactive: MCF7 | HeLa | HepG2 | A549

CC(C)=CCc1c(O)ccc([C@@H]2COc3c(ccc(O)c3CC=C(C)C)C2)c1O
inactive: MCF7 | HeLa | HepG2 | A549

COc1ccc(-c2coc3cc(O)ccc3c2=O)cc1
inactive: MCF7 | HeLa | HepG2 | A549

COc1ccc(C2COc3cc4c(cc3C2)C=CC(C)(C)O4)c(O)c1 (configuration not stated)
inactive: MCF7 | HeLa | HepG2 | A549

CC(C)=CCc1cc2c(cc1O)OC[C@H](c1ccc(O)cc1O)[C@@H]2c1cc2c(c(CC=C(C)C)c1O)OC[C@@H](c1ccc(O)cc1O)C2
inactive: MCF7 | HeLa | HepG2 | A549

CC(C)=CCc1cc([C@@H]2CC(=O)c3ccc(O)cc3O2)ccc1O
inactive: MCF7 | HeLa | HepG2 | A549

CC(C)(O)CCc1c(O)ccc2c1OC[C@H](c1ccc(O)cc1O)C2
inactive: MCF7 | HeLa | HepG2 | A549

COc1ccc([C@@H]2COc3cc(O)ccc3C2)c(O)c1
inactive: MCF7 | HeLa | HepG2 | A549

COc1ccc([C@H]2COc3c(ccc(O)c3CC=C(C)C)C2)c(O)c1
inactive: MCF7 | HeLa | HepG2 | A549

COc1ccc(C[C@H]2Oc3cc(O)ccc3/C2=C/C(=O)O)cc1
inactive: MCF7 | HeLa | HepG2 | A549

CC(C)=CCc1cc([C@H]2Oc3cc(O)ccc3C(=O)[C@@H]2O)ccc1O
inactive: MCF7 | HeLa | HepG2 | A549

CC(C)=CCc1c(O)ccc2c1OC[C@@H](c1ccc(O)cc1O)C2=O
inactive: MCF7 | HeLa | HepG2 | A549

O=C(O)/C=C1/c2ccc(O)cc2O[C@@H]1Cc1ccc(O)cc1
inactive: MCF7 | HeLa | HepG2 | A549

CC(C)=CCc1c(O)ccc2c1OC[C@H](c1ccc(O)cc1O)C2
inactive: MCF7 | HeLa | HepG2 | A549

CC1(C)CCc2c(ccc3c2OC[C@@H](c2ccc(O)cc2O)C3=O)O1
inactive: MCF7 | HeLa | HepG2 | A549

CC(C)=CCc1c(O)ccc2c1OC[C@H](c1cc([C@@H]3c4ccc(O)c(CC=C(C)C)c4OC[C@@H]3c3ccc(O)cc3O)c(O)cc1O)C2
inactive: MCF7 | HeLa | HepG2 | A549

CC(C)=CCc1c(O)ccc([C@@H]2COc3c(ccc(O)c3CC=C(C)C)C2=O)c1O
inactive: MCF7 | HeLa | HepG2 | A549

COc1ccc(-c2coc3c(CC=C(C)C)c(O)ccc3c2=O)cc1
inactive: MCF7 | HeLa | HepG2 | A549

CC(C)=CCc1cc([C@H]2Oc3cc(O)cc(O)c3C(=O)[C@@H]2O)ccc1O
inactive: MCF7 | HeLa | HepG2 | A549
